Data on 35 compounds can be found in patent publication US20100166765A1, “BENZOQUINAZOLINE DERIVATIVES” (priority 2005, published 2010).

As a reminder, the melting point is the temperature of the solid-liquid transition. In turn, `C#CCOc1ccc2nc(C(=O)c3cccn3C)nc(-c3ccc(C(C)C)cc3)c2c1` [Example 39, (1-Methyl-1H-pyrrol)-2-yl-[4-(4-isopropyl-phenyl)-6-propargyloxy-quinazolin-2-yl]-methanone] returned a melting point of 126 to 128 °C.
`C#CCOc1ccc2nc(C(=O)c3cc4ccccc4s3)nc(-c3ccc(C(C)C)cc3)c2c1` [Example 37, Benz[b]thiophen-2-yl-[4-(4-isopropyl-phenyl)-6-propargyloxy-quinazolin-2-yl]-methanone] displayed a melting point of 167 to 169 °C.
Compound `C#CCOc1ccc2nc(C(=O)c3ccc(C(=O)OCC)cc3)nc(-c3ccc(C(C)C)cc3)c2c1` [Example 25, 4-[4-(4-Isopropyl-phenyl)-6-propargyloxy-quinazoline-2-carbonyl]-benzoic acid ethyl ester] displayed a melting point of 132 to 134 °C.
On to `C#CCOc1ccc2nc(C(=O)c3ccc(CCC)cc3)nc(-c3ccc(C(C)C)cc3)c2c1` [Example 16a, (4-Propyl-phenyl)-[4-(4-isopropyl-phenyl)-6-propargyloxy-quinazolin-2-yl]-methanone], for which the melting point lay in the range of 140 to 142 °C.
Next, `C#CCOc1ccc2nc(C(=O)c3ccc(CC)cc3)nc(-c3ccc(C(C)C)cc3)c2c1` [Example 16, (4-Ethyl-phenyl)-[4-(4-isopropyl-phenyl)-6-propargyloxy-quinazolin-2-yl]-methanone]: 108 to 111 °C; `C#CCOc1ccc2nc(C(=O)c3cccc(Br)c3)nc(-c3ccc(C(C)C)cc3)c2c1` [Example 12, (3-Bromo-phenyl)-[4-(4-isopropyl-phenyl)-6-propargyloxy-quinazolin-2-yl]-methanone]: 132 °C; `C#CCOc1ccc2nc(C(=O)c3ccc(O)cc3)nc(-c3ccc(C(C)C)cc3)c2c1` [Example 30, (4-Hydroxy)-[4-(4-isopropyl-phenyl)-6-propargyloxy-quinazolin-2-yl]-methanone]: 185 to 187 °C.
The compound `C#CCOc1ccc2nc(C(=O)c3ccc(F)cc3)nc(-c3ccc(C(C)(C)C)cc3)c2c1` [Example 10, (4-Fluoro-phenyl)-[4-(4-tert.butyl-phenyl)-6-propargyloxy-quinazolin-2-yl]-methanone] came in with a melting point of 105 to 107 °C.
For `C#CCOc1ccc2nc(C(=O)c3ccc(SC)cc3)nc(-c3ccc(C(C)C)cc3)c2c1` [Example 18, (4-Methylthio-phenyl)-[4-(4-isopropyl-phenyl)-6-propargyloxy-quinazolin-2-yl]-methanone] the value was 161 to 164 °C.
`C#CCOc1ccc2nc(C(=O)c3ccoc3)nc(-c3ccc(C(C)(C)C)cc3)c2c1` [Example 33, Furan-3-yl-[4-(4-tert.butyl-phenyl)-6-propargyloxy-quinazolin-2-yl]-methanone] gave a melting point of 170 °C.
Next, `C#CCOc1ccc2nc(C(=O)c3cccc(Cl)c3)nc(-c3ccc(C(C)C)cc3)c2c1` [Example 8, (3-Chloro-phenyl)-[4-(4-isopropyl-phenyl)-6-propargyloxy-quinazolin-2-yl]-methanone]: 128 to 130 °C; `C#CCOc1ccc2nc(C(=O)c3ccc(N(C)C)cc3)nc(-c3ccc(C(C)(C)C)cc3)c2c1` [Example 23, (4-Dimethylamino-phenyl)-[4-(4-tert.butyl-phenyl)-6-propargyloxy-quinazolin-2-yl]-methanone]: 150 to 152 °C; `C#CCOc1ccc2nc(C(=O)c3ccc(C)cc3)nc(-c3ccc(C(C)C)cc3)c2c1` [Example 14, (4-Methyl-phenyl)-[4-(4-isopropyl-phenyl)-6-propargyloxy-quinazolin-2-yl]-methanone]: 130 to 132 °C.
For `C#CCOc1ccc2nc(C(=O)c3ccc(S(C)(=O)=O)cc3)nc(-c3ccc(C(C)C)cc3)c2c1` [Example 19, (4-Methansulfonyl-phenyl)-[4-(4-isopropyl-phenyl)-6-propargyloxy-quinazolin-2-yl]-methanone] the value was 181 to 184 °C; for `C#CCOc1ccc2nc(C(=O)c3ccc(OCC)cc3)nc(-c3ccc(C(C)C)cc3)c2c1` [Example 21, (4-Ethoxy-phenyl)-[4-(4-isopropyl-phenyl)-6-propargyloxy-quinazolin-2-yl]-methanone], 117 to 119 °C.
For the compound `C#CCOc1ccc2nc(C(=O)c3ccc(C(C)C)cc3)nc(-c3ccc(C(C)C)cc3)c2c1` [Example 15, (4-Isopropyl-phenyl)-[4-(4-isopropyl-phenyl)-6-propargyloxy-quinazolin-2-yl]-methanone], the melting point lay within 132 to 134 °C.
For `C#CCOc1ccc2nc(C(=O)c3ccc(C#N)cc3)nc(-c3ccc(C(C)C)cc3)c2c1` [Example 17, (4-Cyano-phenyl)-[4-(4-isopropyl-phenyl)-6-propargyloxy-quinazolin-2-yl]-methanone] the value was 130 to 132 °C; for `C#CCOc1ccc2nc(C(=O)c3ccc(Br)cc3)nc(-c3ccc(C(C)C)cc3)c2c1` [Example 13, (4-Bromo-phenyl)-[4-(4-isopropyl-phenyl)-6-propargyloxy-quinazolin-2-yl]-methanone], 97 to 100 °C.
`C#CCOc1ccc2nc(C(=O)c3ccc(OC)c(OCC)c3)nc(-c3ccc(C(C)C)cc3)c2c1` [Example 28, (3-Ethoxy-4-methoxy-phenyl)-[4-(4-isopropyl-phenyl)-6-propargyloxy-quinazolin-2-yl]-methanone] had a melting point of 148 °C.
Next, `C#CCOc1ccc2nc(C(=O)c3ccc(OC)cc3)nc(-c3ccc(C4CC4)cc3)c2c1` [Example 27]: 147 to 149 °C; `C#CCOc1ccc2nc(C(=O)c3cccc(F)c3)nc(-c3ccc(C(C)(C)C)cc3)c2c1` [Example 11, (3-Fluoro-phenyl)-[4-(4-tert.butyl-phenyl)-6-propargyloxy-quinazolin-2-yl]-methanone]: 156 to 158 °C.
The compound `C#CCOc1ccc2nc(C(=O)c3ccc(C(C)(C)C)cc3)nc(-c3ccc(C(C)C)cc3)c2c1` [Example 1, (4-tert-Butyl-phenyl)-[4-(4-isopropyl-phenyl)-6-propargyloxy-quinazolin-2-yl]-methanone] registered a melting point of 166 to 168 °C.
Consider `C#CCOc1ccc2nc(C(=O)c3ccc(OC)cc3)nc(-c3ccc(C(C)(C)C)cc3)c2c1` [Example 26, (4-Methoxy-phenyl)-[4-(4-tert.butyl-phenyl)-6-propargyloxy-quinazolin-2-yl]-methanone], for which the melting point was in the range of 150 to 152 °C.
Regarding `C#CCOc1ccc2nc(C(=O)c3ccc(OC(C)(C)C)cc3)nc(-c3ccc(C(C)C)cc3)c2c1` [Example 29, (4-tert.Butyloxy-phenyl)-[4-(4-isopropyl-phenyl)-6-propargyloxy-quinazolin-2-yl]-methanone], the melting point lay within 130 to 132 °C.
Next, `C#CCOc1ccc2nc(C(=O)c3ccc(OCCCC)cc3)nc(-c3ccc(C(C)C)cc3)c2c1` [Example 31, (4-Butyloxy)-[4-(4-isopropyl-phenyl)-6-propargyloxy-quinazolin-2-yl]-methanone]: 91 to 93 °C; `C#CCOc1ccc2nc(C(=O)c3ccc(N(C)C)cc3)nc(-c3ccc(C(C)C)cc3)c2c1` [Example 20, (4-Dimethylamino-phenyl)-[4-(4-isopropyl-phenyl)-6-propargyloxy-quinazolin-2-yl]-methanone]: 148 to 151 °C.
For `C#CCOc1ccc2nc(C(=O)c3ccc(F)cc3)nc(-c3ccc(C(C)C)cc3)c2c1` [Example 6, (4-Fluoro-phenyl)-[4-(4-isopropyl-phenyl)-6-propargyloxy-quinazolin-2-yl]-methanone] the value was 124 to 126 °C; for `C#CCOc1ccc2nc(C(=O)c3ccoc3)nc(-c3ccc(C(C)C)cc3)c2c1` [Example 34, Furan-3-yl-[4-(4-isopropyl-phenyl)-6-propargyloxy-quinazolin-2-yl]-methanone], 133 °C; for `C#CCOc1ccc2nc(C(=O)c3sccc3C)nc(-c3ccc(C(C)C)cc3)c2c1` [Example 36], 130 to 132 °C.
Next, `C#CCOc1ccc2nc(C(=O)c3ccco3)nc(-c3ccc(C(C)C)cc3)c2c1` [Example 32, Furan-2-yl-[4-(4-isopropyl-phenyl)-6-propargyloxy-quinazolin-2-yl]-methanone]: 150 to 151 °C; `C#CCOc1ccc2nc(C(=O)c3ccc(C(=O)OC)cc3)nc(-c3ccc(C(C)C)cc3)c2c1` [Example 22, 4-[4-(4-Isopropyl-phenyl)-6-propargyloxy-quinazoline-2-carbonyl]-benzoic acid methyl ester]: 108 to 110 °C.
`C#CCOc1ccc2nc(C(=O)c3cccs3)nc(-c3ccc(C(C)C)cc3)c2c1` [Example 35, Thiophen-2-yl-[4-(4-isopropyl-phenyl)-6-propargyloxy-quinazolin-2-yl]-methanone]: the melting point lay within 113 to 117 °C.
For `C#CCOc1ccc2nc(C(=O)c3ccc(N(C)C)cc3)nc(-c3ccc(C4CC4)cc3)c2c1` [Example 24, (4-Dimethylamino-phenyl)-[4-(4-cyclopropyl-phenyl)-6-propargyloxy-quinazolin-2-yl]-methanone] the value was 169 to 172 °C; for `C#CCOc1ccc2nc(C(=O)c3ccc(Cl)cc3)nc(-c3ccc(C(C)C)cc3)c2c1` [Example 9, (4-Chloro-phenyl)-[4-(4-isopropyl-phenyl)-6-propargyloxy-quinazolin-2-yl]-methanone], 108 to 110 °C.
`C#CCOc1ccc2nc(C(=O)c3cccc(F)c3)nc(-c3ccc(C(C)C)cc3)c2c1` [Example 7, (3-Fluoro-phenyl)-[4-(4-isopropyl-phenyl)-6-propargyloxy-quinazolin-2-yl]-methanone] came in with a melting point of 118 to 120 °C.
